Laboratory results as given in patent US7951829B2, “Benzimidazole modulators of VR1” (Janssen Pharmaceutica NV, priority 2006, dated 2011).

Molecular target: T1, hVR1 (Homo sapiens, UniProt Q8NER1)
T1 construct: expressed in transfected cells; host or cells: HEK293
Experiment: Human VR1 (hVR1) Functional Assay (FLIPR intracellular calcium, capsaicin challenge)
Type: cell-based
Conditions: capsaicin 0.030 μM, HEK293 cells expressing hVR1; for inhibition at 1 µM: test concentration 1 μM

T1 sequence (Q8NER1 whole entry): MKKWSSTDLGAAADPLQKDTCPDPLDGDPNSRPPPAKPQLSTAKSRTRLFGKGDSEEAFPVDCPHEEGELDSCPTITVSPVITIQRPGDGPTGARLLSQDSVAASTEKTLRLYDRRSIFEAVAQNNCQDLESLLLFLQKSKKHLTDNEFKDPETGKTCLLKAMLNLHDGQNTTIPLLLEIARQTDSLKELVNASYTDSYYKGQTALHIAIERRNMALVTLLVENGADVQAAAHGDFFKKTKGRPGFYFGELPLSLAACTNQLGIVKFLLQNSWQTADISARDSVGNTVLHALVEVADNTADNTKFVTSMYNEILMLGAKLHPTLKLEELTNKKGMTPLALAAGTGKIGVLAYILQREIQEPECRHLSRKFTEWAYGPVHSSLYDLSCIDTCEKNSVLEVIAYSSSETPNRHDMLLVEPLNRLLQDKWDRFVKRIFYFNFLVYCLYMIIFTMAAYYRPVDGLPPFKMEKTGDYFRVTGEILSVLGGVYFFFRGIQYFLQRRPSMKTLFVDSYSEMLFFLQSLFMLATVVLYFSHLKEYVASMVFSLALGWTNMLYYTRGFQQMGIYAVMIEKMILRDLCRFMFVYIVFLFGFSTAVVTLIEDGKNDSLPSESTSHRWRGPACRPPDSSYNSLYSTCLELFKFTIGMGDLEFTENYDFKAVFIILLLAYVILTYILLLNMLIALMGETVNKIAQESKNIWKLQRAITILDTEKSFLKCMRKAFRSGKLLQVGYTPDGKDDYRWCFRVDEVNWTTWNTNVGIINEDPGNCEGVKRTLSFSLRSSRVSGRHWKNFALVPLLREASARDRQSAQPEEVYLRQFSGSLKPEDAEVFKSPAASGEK

IC50 | inhibition at 1 µM | SMILES
6 nM | 98% | CC(C)c1ccc(/C=C/c2nc3cc(-c4ccccc4S(N)(=O)=O)ccc3[nH]2)cc1 [Cpd 429, (E)-2-{2-[2-(4-isopropyl-phenyl)-vinyl]-1H-benzimidazol-5-yl}-benzenesulfonamide]
> 500 nM |  | CSc1ccccc1-c1ccc2[nH]c(/C=C/c3ccc(C(F)(F)F)cc3)nc2c1 [Cpd 480, (E)-5-(2-methylsulfanyl-phenyl)-2-[2-(4-trifluoromethyl-phenyl)-vinyl]-1H-benzimidazole]
18 nM | 100% | CS(=O)(=O)Nc1ccccc1-c1ccc2[nH]c(/C=C/c3ccc(C(F)(F)F)cc3F)nc2c1 [Cpd 418, (E)-N-(2-{2-[2-(2-fluoro-4-trifluoromethyl-phenyl)-vinyl]-1H-benzimidazol-5-yl}-phenyl)-methanesulfonamide]
35 nM | 97% | NS(=O)(=O)c1ccccc1-c1ccc2[nH]c(/C=C/c3cccc(Cl)c3F)nc2c1 [Cpd 431, (E)-2-{2-[2-(3-chloro-2-fluoro-phenyl)-vinyl]-1H-benzimidazol-5-yl}-benzenesulfonamide]
 | 20% | FC(F)(F)c1ccc(/C=C/c2nc3cc(-c4ccccc4C(F)(F)F)ccc3[nH]2)cc1 [Cpd 487, (E)-5-(2-trifluoromethyl-phenyl)-2-[2-(4-trifluoromethyl-phenyl)-vinyl]-1H-benzimidazole]
27 nM | 97% | NS(=O)(=O)c1ccccc1-c1ccc2[nH]c(/C=C/c3cc(F)cc(F)c3)nc2c1 [Cpd 361, (E)-2-{2-[2-(3,5-difluoro-phenyl)-vinyl]-1H-benzimidazol-5-yl}-benzenesulfonamide]
12 nM | 98% | NS(=O)(=O)c1ccccc1-c1ccc2[nH]c(/C=C/c3ccc(Br)cc3)nc2c1 [Cpd 363, (E)-2-{2-[2-(4-bromo-phenyl)-vinyl]-1H-benzimidazol-5-yl}-benzenesulfonamide]
38 nM | 94% | NS(=O)(=O)c1ccccc1-c1ccc2[nH]c(C3CC3c3ccc(C(F)(F)F)cc3)nc2c1 (stereo not drawn) [Cpd 190, 2-{2-[2-(4-trifluoromethyl-phenyl)-cyclopropyl]-1H-benzimidazol-5-yl}-benzenesulfonamide]
31 nM | 98% | NS(=O)(=O)c1ccccc1-c1ccc2[nH]c(CCc3ccc(Cl)cc3)nc2c1 [Cpd 139, 2-{2-[2-(4-chloro-phenyl)-ethyl]-1H-benzimidazol-5-yl}-benzenesulfonamide]
10 nM | 98% | NS(=O)(=O)c1ccccc1-c1ccc2[nH]c(/C=C/c3ccc4ccccc4c3)nc2c1 [Cpd 433, (E)-2-[2-(2-naphthalen-2-yl-vinyl)-1H-benzimidazol-5-yl]-benzenesulfonamide]
44 nM | 98% | NS(=O)(=O)c1cc(C(F)(F)F)ccc1-c1ccc2[nH]c(CCc3ccc(C(F)(F)F)cc3)nc2c1 [Cpd 447, 5-trifluoromethyl-2-{2-[2-(4-trifluoromethyl-phenyl)-ethyl]-1H-benzimidazol-5-yl}-benzenesulfonamide]
22 nM | 100% | O=S(=O)(c1ccc(/C=C/c2nc3cc(-c4ccccc4CO)ccc3[nH]2)cc1)C(F)(F)F [Cpd 42, (E)-(2-{2-[2-(4-trifluoromethanesulfonyl-phenyl)-vinyl]-1H-benzimidazol-5-yl}-phenyl)-methanol]
20 nM | 96% | NS(=O)(=O)c1ccc(C(F)(F)F)cc1-c1ccc2[nH]c(CCc3ccc(C(F)(F)F)cc3)nc2c1 [Cpd 445, 4-trifluoromethyl-2-{2-[2-(4-trifluoromethyl-phenyl)-ethyl]-1H-benzimidazol-5-yl}-benzenesulfonamide]
> 500 nM |  | CC(=O)Nc1ccccc1-c1ccc2[nH]c(/C=C/c3ccc(C(F)(F)F)cc3)nc2c1 [Cpd 478, (E)-N-(2-{2-[2-(4-trifluoromethyl-phenyl)-vinyl]-1H-benzimidazol-5-yl}-phenyl)-acetamide]
24 nM | 98% | CNS(=O)(=O)c1ccccc1-c1ccc2[nH]c(/C=C/c3ccc(S(=O)(=O)C(F)(F)F)cc3)nc2c1 [Cpd 342, (E)-N-methyl-2-{2-[2-(4-trifluoromethanesulfonyl-phenyl)-vinyl]-1H-benzimidazol-5-yl}-benzenesulfonamide]
17 nM | 100% | CNS(=O)(=O)c1ccccc1-c1ccc2[nH]c(/C=C/c3ccc(C(F)(F)F)cc3C(F)(F)F)nc2c1 [Cpd 455, (E)-2-{2-[2-(2,4-bis-trifluoromethyl-phenyl)-vinyl]-1H-benzimidazol-5-yl}-N-methyl-benzenesulfonamide]

Further lines, the molecule ahead of its results:

SMILES | IC50 | inhibition at 1 µM
CC(C)(C)c1ccc(/C=C/c2nc3cc(-c4ccccc4C(N)=O)c(C(F)(F)F)cc3[nH]2)cc1 [Cpd 53, (E)-2-{2-[2-(4-tert-butyl-phenyl)-vinyl]-6-trifluoromethyl-1H-benzimidazol-5-yl}-benzamide] | 47 nM | 98%
CC(C)(C)c1ccc(/C=C/c2nc3cc(-c4ccccc4N)ccc3[nH]2)cc1 [Cpd 11, (E)-2-{2-[2-(4-tert-butyl-phenyl)-vinyl]-1H-benzimidazol-5-yl}-phenylamine] | 210 nM | 100%
CC(=O)c1ccccc1-c1cc2nc(/C=C/c3ccc(C(F)(F)F)cc3)[nH]c2cc1Cl [Cpd 67, (E)-1-(2-{6-chloro-2-[2-(4-trifluoromethyl-phenyl)-vinyl]-1H-benzimidazol-5-yl}-phenyl)-ethanone] | 130 nM | 98%
CS(=O)(=O)Nc1ccccc1-c1ccc2[nH]c(/C=C/c3cc(F)cc(C(F)(F)F)c3)nc2c1 [Cpd 411, (E)-N-(2-{2-[2-(3-fluoro-5-trifluoromethyl-phenyl)-vinyl]-1H-benzimidazol-5-yl}-phenyl)-methanesulfonamide] | 350 nM | 85%
CNS(=O)(=O)c1ccccc1-c1ccc2[nH]c(/C=C/c3ccc(F)cc3F)nc2c1 [Cpd 349, (E)-2-{2-[2-(2,4-difluoro-phenyl)-vinyl]-1H-benzimidazol-5-yl}-N-methyl-benzenesulfonamide] | 59 nM | 99%
CS(=O)(=O)Nc1ccccc1-c1ccc2[nH]c(/C=C/c3ccc(Cl)c(Cl)c3)nc2c1 [Cpd 416, (E)-N-(2-{2-[2-(3,4-dichloro-phenyl)-vinyl]-1H-benzimidazol-5-yl}-phenyl)-methanesulfonamide] | 120 nM | 96%
Cc1ccc(/C=C/c2nc3cc(-c4ccccc4NS(C)(=O)=O)ccc3[nH]2)cc1 [Cpd 412, (E)-N-{2-[2-(2-p-tolyl-vinyl)-1H-benzimidazol-5-yl]-phenyl}-methanesulfonamide] | 190 nM | 86%
Cn1c(/C=C/c2ccc(C(F)(F)F)cc2)nc2cc(-c3ccccc3NS(C)(=O)=O)ccc21 [Cpd 477, (E)-N-(2-{1-methyl-2-[2-(4-trifluoromethyl-phenyl)-vinyl]-1H-benzimidazol-5-yl}-phenyl)-methanesulfonamide] |  | 44%
CC(=O)c1ccccc1-c1cc2nc(/C=C/c3ccc(C(F)(F)F)cc3)[nH]c2cc1F [Cpd 62, (E)-1-(2-{6-fluoro-2-[2-(4-trifluoromethyl-phenyl)-vinyl]-1H-benzimidazol-5-yl}-phenyl)-ethanone] | 200 nM | 100%
OCc1ccccc1-c1ccc2[nH]c(/C=C/c3ccc(SC(F)(F)F)cc3)nc2c1 [Cpd 35, (E)-(2-{2-[2-(4-trifluoromethylsulfanyl-phenyl)-vinyl]-1H-benzimidazol-5-yl}-phenyl)-methanol] | 41 nM | 100%
CC(C)(O)c1ccccc1-c1ccc2[nH]c(/C=C/c3ccccc3)nc2c1 [Cpd 468, (E)-2-[2-(2-styryl-1H-benzimidazol-5-yl)-phenyl]-propan-2-ol] | 8 nM | 97%
CNS(=O)(=O)c1ccccc1-c1ccc2[nH]c(/C=C/c3cccc(F)c3F)nc2c1 [Cpd 325, (E)-2-{2-[2-(2,3-difluoro-phenyl)-vinyl]-1H-benzimidazol-5-yl}-N-methyl-benzenesulfonamide] |  | 73%
NC(=O)c1ccccc1-c1ccc2[nH]c(/C=C/c3ccc(F)c(F)c3)nc2c1 [Cpd 26, (E)-2-{2-[2-(3,4-difluoro-phenyl)-vinyl]-1H-benzimidazol-5-yl}-benzamide] |  | 6%
CNS(=O)(=O)c1ccccc1-c1ccc2[nH]c(/C=C/c3ccc(F)c(F)c3F)nc2c1 [Cpd 323, (E)-N-methyl-2-{2-[2-(2,3,4-trifluoro-phenyl)-vinyl]-1H-benzimidazol-5-yl}-benzenesulfonamide] | 40 nM | 97%
CNS(=O)(=O)c1ccccc1-c1ccc2[nH]c(/C=C/c3ccc(C(=O)O)cc3)nc2c1 [Cpd 453, (E)-4-{2-[5-(2-methylsulfamoyl-phenyl)-1H-benzimidazol-2-yl]-vinyl}-benzoic acid] |  | 22%
CNS(=O)(=O)c1ccccc1-c1ccc2[nH]c(/C=C/c3ccc(C(C)=O)cc3)nc2c1 [Cpd 456, (E)-2-{2-[2-(4-acetyl-phenyl)-vinyl]-1H-benzimidazol-5-yl}-N-methyl-benzenesulfonamide] | 45 nM | 100%
OCc1ccccc1-c1cc2nc(/C=C/c3ccc(C(F)(F)F)cc3)[nH]c2cc1Cl [Cpd 66, (E)-(2-{6-chloro-2-[2-(4-trifluoromethyl-phenyl)-vinyl]-1H-benzimidazol-5-yl}-phenyl)-methanol] | 48 nM | 98%
CC(=O)c1ccccc1-c1ccc2[nH]c(/C=C/c3ccc(SC(F)(F)F)cc3)nc2c1 [Cpd 39, (E)-1-(2-{2-[2-(4-trifluoromethylsulfanyl-phenyl)-vinyl]-1H-benzimidazol-5-yl}-phenyl)-ethanone] | 200 nM | 98%
CNS(=O)(=O)c1ccccc1-c1ccc2[nH]c(/C=C/c3ccccc3Cl)nc2c1 [Cpd 346, (E)-2-{2-[2-(2-chloro-phenyl)-vinyl]-1H-benzimidazol-5-yl}-N-methyl-benzenesulfonamide] | 264 nM | 87%
